Laboratory results: US20140235533A1, “DIHYDROFURAN DERIVATIVES AS INSECTICIDAL COMPOUNDS” (SYNGENTA PARTICIPATIONS AG, priority 2011, published 2014)

Key:
Assay type in all cases: in vivo
[1] = test system: Heliothis virescens; experiment: Heliothis virescens (tobacco budworm) egg test on artificial diet; details: 96 h, 200 ppm (concentration in well 18 ppm), eggs 0-24 h old on artificial diet, egg mortality, larval mortality, growth regulation after 4 days
Description: Heliothis virescens (Tobacco Budworm):
Eggs (0-24 h old) were placed in 24-well microtiter plate on artificial diet and treated with test solutions at an application rate of 200 ppm (concentration in well 18 ppm) by pipetting. After an incubation period of 4 days, samples were checked for egg mortality, larval mortality, and growth regulation. The following compound gave at least 80% control of Heliothis virescens: A1, A2, A03, A05, A06, A07, A08, A09, A10, A11, A12, A13, A14, A15, A16, A17, A18, A19, A20, A21, A22, A25, A26, A27, A31, A32, A34, A37, A39, A40, A42, A44, A45, A46, A47, A48, A49, A50, A51, A52, A53, B1**.

[2] = test system: Plutella xylostella; experiment: Plutella xylostella (diamond back moth) artificial diet MTP test; details: 144 h, 200 ppm (concentration in well 18 ppm), L2 larvae, larval mortality and growth regulation after 6 days
Description: Plutella xylostella (Diamond Back Moth): 24-well microtiter plate (MTP) with artificial diet was treated with test solutions at an application rate of 200 ppm (concentration in well 18 ppm) by pipetting. After drying, the MTPs were infested with L2 larvae (7-12 per well). After an incubation period of 6 days, samples were checked for larval mortality and growth regulation.

[3] = test system: Tetranychus urticae; experiment: Tetranychus urticae (two-spotted spider mite) bean leaf disc spray test; details: foliar, 192 h, 200 ppm spray on bean leaf discs, mite populations of mixed ages, egg, larval and adult mortality 8 days later
Source text: Tetranychus urticae (Two-Spotted Spider Mite): Bean leaf discs on agar in 24-well microtiter plates were sprayed with test solutions at an application rate of 200 ppm. After drying, the leaf discs are infested with mite populations of mixed ages. 8 days later, discs are checked for egg mortality, larval mortality, and adult mortality.

[4] = test system: Diabrotica balteata; experiment: Diabrotica balteata (corn root worm) artificial diet MTP test; details: 120 h, 200 ppm (concentration in well 18 ppm), L2 larvae, larval mortality and growth regulation after 5 days
Description: Diabrotica balteata (Corn Root Worm): A 24-well microtiter plate (MTP) with artificial diet was treated with test solutions at an application rate of 200 ppm (concentration in well 18 ppm) by pipetting. After drying, the MTPs were infested with L2 larvae (6-10 per well). After an incubation period of 5 days, samples were checked for larval mortality and growth regulation.

[5] = test system: Spodoptera littoralis; experiment: Spodoptera littoralis (Egyptian cotton leafworm) cotton leaf disc spray test; details: foliar, 72 h, 200 ppm spray on cotton leaf discs, 5 L1 larvae, mortality, feeding behavior, growth regulation 3 days after treatment
Source text: Spodoptera littoralis (Egyptian Cotton Leafworm) Cotton leaf discs were placed on agar in a 24-well microtiter plate and sprayed with test solutions at an application rate of 200 ppm. After drying, the leaf discs were infested with 5 L1 larvae. The samples were checked for mortality, feeding behavior, and growth regulation 3 days after treatment (DAT).

Measured: pest or weed control at 200 ppm

O=C(NCc1ccc(C2=COC(c3cc(Cl)cc(Cl)c3)(C(F)(F)F)C2)cc1Cl)C1CC1 (centres unmarked) [Compound A2, N-[[2-chloro-4-[2-(3,5-dichlorophenyl)-2-(trifluoromethyl)-3H-furan-4-yl]phenyl]methyl]cyclopropanecarboxamide]
≥ 80%: all assays above

O=C(COc1ccccc1)NCc1ccc(C2=COC(c3cc(Cl)cc(Cl)c3)(C(F)(F)F)C2)cc1Cl (centres unmarked) [Compound A19, N-[[2-chloro-4-[2-(3,5-dichlorophenyl)-2-(trifluoromethyl)-3H-furan-4-yl]phenyl]methyl]-2-phenoxy-acetamide]
not listed: [5]
≥ 80%: all other assays above

CSCC(=O)NCc1ccc(C2=COC(c3cc(Cl)cc(Cl)c3)(C(F)(F)F)C2)cc1Cl (centres unmarked) [Compound A1, N-[[2-chloro-4-[2-(3,5-dichlorophenyl)-2-(trifluoromethyl)-3H-furan-4-yl]phenyl]methyl]-2-methylsulfanyl-acetamide]
≥ 80%: all assays above

C[C@H](NC(=O)C1CC1)c1ccc(C2=COC(c3cc(Cl)c(Cl)c(Cl)c3)(C(F)(F)F)C2)cc1 (stereo partly drawn) [B1*, N-[(1S)-1-[4-[2-(3,4,5-trichlorophenyl)-2-(trifluoromethyl)-3H-furan-4-yl]phenyl]ethyl]cyclopropanecarboxamide]
≥ 80%: all assays above

CS(=O)(=O)CC(=O)NCc1ccc(C2=COC(c3cc(Cl)cc(Cl)c3)(C(F)(F)F)C2)cc1Cl (centres unmarked) [Compound A51, N-[[2-chloro-4-[2-(3,5-dichlorophenyl)-2-(trifluoromethyl)-3H-furan-4-yl]phenyl]methyl]-2-methylsulfonyl-acetamide]
≥ 80%: all assays above

CCC(=O)NCc1ccc(C2=COC(c3cc(Cl)cc(Cl)c3)(C(F)(F)F)C2)cc1Cl (centres unmarked) [Compound A05, N-[[2-chloro-4-[2-(3,5-dichlorophenyl)-2-(trifluoromethyl)-3H-furan-4-yl]phenyl]methyl]propanamide]
≥ 80%: all assays above

O=C(NCc1ccc(C2=COC(c3cc(Cl)cc(Cl)c3)(C(F)(F)F)C2)cc1Cl)C1CCCO1 (centres unmarked) [Compound A07, N-[[2-chloro-4-[2-(3,5-dichlorophenyl)-2-(trifluoromethyl)-3H-furan-4-yl]phenyl]methyl]tetrahydrofuran-2-carboxamide]
≥ 80%: all assays above

O=C(Cc1cccs1)NCc1ccc(C2=COC(c3cc(Cl)cc(Cl)c3)(C(F)(F)F)C2)cc1Cl (centres unmarked) [Compound A18, N-[[2-chloro-4-[2-(3,5-dichlorophenyl)-2-(trifluoromethyl)-3H-furan-4-yl]phenyl]methyl]-2-(2-thienyl)acetamide]
not listed: [4]
≥ 80%: all other assays above

CCC(CC)C(=O)NCc1ccc(C2=COC(c3cc(Cl)cc(Cl)c3)(C(F)(F)F)C2)cc1Cl (centres unmarked) [Compound A03, N-[[2-chloro-4-[2-(3,5-dichlorophenyl)-2-(trifluoromethyl)-3H-furan-4-yl]phenyl]methyl]-2-ethyl-butanamide]
≥ 80%: all assays above

O=C(COCc1ccccc1)NCc1ccc(C2=COC(c3cc(Cl)cc(Cl)c3)(C(F)(F)F)C2)cc1Cl (centres unmarked) [Compound A08, 2-benzyloxy-N-[[2-chloro-4-[2-(3,5-dichlorophenyl)-2-(trifluoromethyl)-3H-furan-4-yl]phenyl]methyl]acetamide]
≥ 80%: [1] | [3] | [5]

O=C(CC(F)(F)F)NCc1ccc(C2=COC(c3cc(Cl)cc(Cl)c3)(C(F)(F)F)C2)cc1Cl (centres unmarked) [Compound A48, N-[[2-chloro-4-[2-(3,5-dichlorophenyl)-2-(trifluoromethyl)-3H-furan-4-yl]phenyl]methyl]-3,3,3-trifluoro-propanamide]
≥ 80%: all assays above

CC(C)C(=O)NCc1ccc(C2=COC(c3cc(Cl)cc(Cl)c3)(C(F)(F)F)C2)cc1Cl (centres unmarked) [Compound A46, N-[[2-chloro-4-[2-(3,5-dichlorophenyl)-2-(trifluoromethyl)-3H-furan-4-yl]phenyl]methyl]-2-methyl-propanamide]
≥ 80%: all assays above

C/N=C1/SC(CC(=O)NCc2ccc(C3=COC(c4cc(Cl)cc(Cl)c4)(C(F)(F)F)C3)cc2Cl)C(=O)N1C (centres unmarked) [Compound A15, N-[[2-chloro-4-[2-(3,5-dichlorophenyl)-2-(trifluoromethyl)-3H-furan-4-yl]phenyl]methyl]-2-[(2E)-3-methyl-2-methylimino-4-oxo-thiazolidin-5-yl]acetamide]
≥ 80%: all assays above

O=C(Cc1ccccc1)NCc1ccc(C2=COC(c3cc(Cl)cc(Cl)c3)(C(F)(F)F)C2)cc1Cl (centres unmarked) [Compound A14, N-[[2-chloro-4-[2-(3,5-dichlorophenyl)-2-(trifluoromethyl)-3H-furan-4-yl]phenyl]methyl]-2-phenyl-acetamide]
not listed: [4]
≥ 80%: all other assays above
